Reference: patent US4012516A, “Pharmacologically active compositions” (Burroughs Wellcome Co., priority 1975, dated 1977)
Read-outs that look alike come from different tables or passages of the source.

System: human chopped lung tissue
Assay: Inhibition of histamine release from human chopped lung tissue passively sensitized in vitro with reaginic antibody, challenged with homologous antigen
Assay type: cell-based
Settings: for inhibition at 1 µM: Compound (II) 10^-6 M alone; for inhibition at 0.001 µM: Salbutamol 10^-9 M alone; for inhibition at 0.0001 µM: Salbutamol 10^-10 M alone
Description: The release of histamine from lung preparations treated in this way is known to be inhibited by both the stimulants and the compounds of formula (I) when used separately, but it has now been shown that their combined effect is greater than was to be expected from a knowledge of the activity of the individual components, and in particular the inhibition is greater than the sum of the individual responses when the components are used separately at the same concentrations. The compounds of formula (I) are represented by the formula [drawing 1] wherein Z is carbonyl (C=O) or oxygen (--O--), and X is carboxy or a 5-tetrazolyl group, and salts thereof with pharmaceutically acceptable cations. Of especial value are:
The experimental procedure used was that using chopped human lung tissue substantially as described in Br. Med. J. 3, 272 (1968).

[1] = Homo sapiens, Experiment A, Compound (II) none, read-out: Percentage Inhibition of Histamine Release
[2] = Homo sapiens, Experiment B, Compound (II) none, read-out: Percentage Inhibition of Histamine Release

Compound | Percentage Inhibition of Histamine Release (Experiment A, combination: Compound (II) 10^-6 M + Salbutamol 10^-9 M) | Percentage Inhibition of Histamine Release (Experiment A, combination: Compound (II) 10^-6 M + Salbutamol 10^-10 M) | Percentage Inhibition of Histamine Release (Experiment B, combination: Compound (II) 10^-6 M + Salbutamol 10^-8 M) | Percentage Inhibition of Histamine Release (Experiment B, combination: Compound (II) 10^-6 M + Salbutamol 10^-9 M) | Percentage Inhibition of Histamine Release (Experiment B, combination: Compound (II) 10^-6 M + Salbutamol 10^-10 M) | Percentage Inhibition of Histamine Release (Experiment B, combination: Compound (II) 10^-7 M + Salbutamol 10^-8 M) | Percentage Inhibition of Histamine Release (Experiment B, combination: Compound (II) 10^-7 M + Salbutamol 10^-9 M) | Percentage Inhibition of Histamine Release (Experiment B, combination: Compound (II) 10^-7 M + Salbutamol 10^-10 M) | inhibition at 1 µM (Homo sapiens, Experiment A, Salbutamol none, read-out: Percentage Inhibition of Histamine Release) | inhibition at 1 µM (Homo sapiens, Experiment B, Salbutamol none, read-out: Percentage Inhibition of Histamine Release) | inhibition at 0.1 µM (Homo sapiens, Experiment B, Compound (II) 10^-7 M alone, Salbutamol none, read-out: Percentage Inhibition of Histamine Release) | anti-allergic effect in combination with bronchodilator stimulants (combined with bronchodilators acting directly or indirectly by stimulation) | inhibition at 0.001 µM [1] | inhibition at 0.0001 µM [1] | inhibition at 0.01 µM (Homo sapiens, Experiment B, Salbutamol 10^-8 M alone, Compound (II) none, read-out: Percentage Inhibition of Histamine Release) | inhibition at 0.001 µM [2] | inhibition at 0.0001 µM [2]
O=C1c2ccccc2S(=O)(=O)c2cc(-c3nnn[nH]3)ccc21 [Compound (II), 3-(5-TETRAZOLYL)THIOXANTHONE-10,10-DIOXIDE] | 49% | 58% | 38% | 96% | -11% | 64% | 80.5% | -5% | 15% | -14.5% | -13% | potentiated |  |  |  |  | 
CC(C)(C)NCC(O)c1ccc(O)c(CO)c1 (stereo not drawn) [Salbutamol, α'-t-butylaminomethyl-4-hydroxy-m-xylene-α',α^3-diol, reference compound] |  |  |  |  |  |  |  |  |  |  |  |  | 0% | 17% | 27% | 22% | 0.9%
